According to patent US9040691B2, “Hydroxymethylaryl-substituted pyrrolotriazines as ALK1 inhibitors” (BAYER INTELLECTUAL PROPERTY GMBH, priority 2011, dated 2015):
pIC50: −log10 of the molar value.

Key:
ALK1 kinase = ALK1 kinase (Homo sapiens (Human), UniProt P37023); test: In vitro enzyme inhibition using scintillation of incorporated radio label (flashplate assay); format: biochemical; conditions: biotinylated α-casein, 33P-ATP, 500 nM ATP
[1] = system: hSmad7 mRNA in BMP9-stimulated HUVEC; test: Smad7 target gene induction: HUVEC cell assay and TaqMan expression analysis; format: cell-based, human; conditions: Homo sapiens, 3 h, 1 ng/ml BMP9 for 3 h, Smad7 mRNA by TaqMan
Experimental: B-2b. Smad7 Target Gene Induction: HUVEC Cell Assay and TaqMan Expression Analysis
The in vitro potency of ALK1 inhibitors was tested in a cell-based assay. Bone morphogenetic protein 9 (BMP9) induces Smad7 mRNA expression in human vascular endothelial cells (HUVEC) via activation of ALK1.
1.5×10^4 passage 2 HUVECs (Lonza, Basel, Switzerland) per well were seeded in a 96-well plate in EBM-2 medium containing EGM-2 additives and growth factors (Lonza, CC-3156 and CC-4176). After 4 h, the medium was changed to EBM-2 with 0.2% fetal calf serum (FCS) and the cells were starved for 20 h in a humidified incubator at 37° C., 5% CO2. Test compounds were added at 11 different concentrations between 0 and 10 000 nM one hour prior to stimulation of the cells for 3 h with recombinant human BMP9 protein at 1 ng/ml (dissolved in 4 mM hydrochloric acid, 0.1% BSA at 10 μg/ml; R&D Systems, Minneapolis, Minn., USA, 3209BP). Medium was removed, and the cells were lysed in 100 μl RLT buffer (Qiagen, Hilden, Germany). RNA was isolated using the Qiagen RNeasy 96 Kit (order-No. 74182) according to manufacturer's instructions and eluted from the columns with 65 μl RNAse-free water. Reverse transcription for quantitative RT-PCR was carried out with the Omniscript Kit (Qiagen, 205113) in RNAse-free 96-well round-bottom plates. Per well, 6.8 μl of a reaction master mix containing 2 μl 10×RT-buffer, 2 μl dNTPs (5 mM each), 1.6 μl random primer N6 (125 μM), 0.25 μl Rnase Out (40 U/μl) and 1 μl Omniscript Reverse Transcriptase were added. After addition of 13.2 μl of the RNA/water mixture, plate contents were mixed, incubated for 1 h at 37° C. and the total volume adjusted to 100 μl in each well by addition of 80 μl RNAse-free water.
The quantification of human Smad7 mRNA was carried out on a TaqMan using the Eurogentec qPCR Mastermix Plus (RT-QP2X-03-075+; Cologne, Germany) and employing human L32 as housekeeping reference mRNA. Per qPCR reaction, 2.8 μl primer mix, 10 μl master mix, 2.2 μl water and 5 μl cDNA were added. Thermal cycling parameters were 2 min at 50° C., followed by 10 min at 95° C., followed by 40 cycles of melting at 95° C. for 15 sec and annealing/extending at 60° C. for 1 min.
Smad7 mRNA levels induced by 1 ng/ml BMP9 without the addition of any inhibitor were set at 100% induction, and % inhibition was calculated for each test compound with this value. For each test compound, every value was determined in quadruplicate. The IC50 values were determined using Microsoft Excel. The fitting method used was a weighted, unconstrained ML-fit.

ALK1 kinase, sequence (P37023 22-503): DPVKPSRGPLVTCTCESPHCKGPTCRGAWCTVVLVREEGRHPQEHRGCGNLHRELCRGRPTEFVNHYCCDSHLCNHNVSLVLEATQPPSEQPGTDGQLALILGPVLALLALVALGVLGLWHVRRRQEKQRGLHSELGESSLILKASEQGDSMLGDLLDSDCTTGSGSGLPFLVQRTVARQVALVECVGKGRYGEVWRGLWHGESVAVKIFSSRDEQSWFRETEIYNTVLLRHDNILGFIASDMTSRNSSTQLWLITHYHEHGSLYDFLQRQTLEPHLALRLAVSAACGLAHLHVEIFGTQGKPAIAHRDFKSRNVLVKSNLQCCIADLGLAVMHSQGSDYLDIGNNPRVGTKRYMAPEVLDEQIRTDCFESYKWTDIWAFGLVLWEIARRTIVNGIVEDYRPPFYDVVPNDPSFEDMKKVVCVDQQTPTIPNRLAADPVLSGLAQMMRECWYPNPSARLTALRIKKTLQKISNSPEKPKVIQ

Row | pIC50 (ALK1 kinase) | Compound | pIC50 [1]
1 | 8.70 | CCCc1cc(-c2ccc(CO)cc2)c2c(N)ncnn12 [Example 1, [4-(4-Amino-7-propylpyrrolo[2,1-f][1,2,4]triazin-5-yl)phenyl]methanol] | 7.03
2 | 8.55 | CCCc1cc(-c2cc(F)c(CO)c(F)c2)c2c(N)ncnn12 [Example 2, [4-(4-Amino-7-propylpyrrolo[2,1-f][1,2,4]triazin-5-yl)-2,6-difluorophenyl]methanol] | 6.80
3 | 8.40 | Nc1ncnn2c(CCCO)cc(-c3ccc(CO)cc3)c12 [Example 3, 3-{4-Amino-5-[4-(hydroxymethyl)phenyl]pyrrolo[2,1-f][1,2,4]triazin-7-yl}propan-1-ol] | 6.92
4 | 8.89 | Nc1ncnn2c(C(O)C3CC3)cc(-c3cc(F)c(CO)c(F)c3)c12 (centres unmarked) [Example 5, {4-Amino-5-[3,5-difluoro-4-(hydroxymethyl)phenyl]pyrrolo[2,1-f][1,2,4]triazin-7-yl}(cyclopropyl)methanol] | 6.54
5 | 8.70 | Nc1ncnn2c1c(-c1cc(F)c(CO)c(F)c1)cc2[C@H]1CC[C@H](O)CC1 [Example 7, trans-4-[4-Amino-5-[3,5-difluoro-4-(hydroxymethyl)phenyl]pyrrolo[2,1-f][1,2,4]triazin-7-yl]-cyclohexanol] | 6.85
6 | 8.72 | Nc1ncnn2c([C@@H]3CCCNC3)cc(-c3cc(F)c(CO)c(F)c3)c12 [Example 11, (4-{4-Amino-7-[(3R)-piperidin-3-yl]pyrrolo[2,1-f][1,2,4]triazin-5-yl}-2,6-difluorophenyl)methanol] | 6.74
7 | 8.70 | Nc1nc(-c2cc(-c3ccc(CO)cc3)c3c(N)ncnn23)cs1 [Example 17, {4-[4-Amino-7-(2-amino-1,3-thiazol-4-yl)pyrrolo[2,1-f][1,2,4]triazin-5-yl]phenyl}methanol] | 6.54
8 | 7.52 | Nc1ncnn2c(CN3CCOCC3)cc(-c3cc(F)c(CO)c(F)c3)c12 [Example 20, {4-[4-Amino-7-(morpholin-4-ylmethyl)pyrrolo[2,1-f][1,2,4]triazin-5-yl]-2,6-difluorophenyl}-methanol] | 5.23
9 | 7.60 | Nc1ncnn2c(CN3CCOCC3)cc(-c3ccc(CO)c(F)c3)c12 [Example 21, {4-[4-Amino-7-(morpholin-4-ylmethyl)pyrrolo[2,1-f][1,2,4]triazin-5-yl]-2-fluorophenyl}methanol] | 6.10
10 | 7.77 | Nc1ncnn2c(CN3CCOCC3)cc(-c3ccc(CO)c(Cl)c3)c12 [Example 22, {4-[4-Amino-7-(morpholin-4-ylmethyl)pyrrolo[2,1-f][1,2,4]triazin-5-yl]-2-chlorophenyl}methanol] | 5.51
